Assay results as given in ChEMBL document CHEMBL3885881, “DrugMatrix”.

Species: Rattus norvegicus
Experiment: DrugMatrix - Regimen: Daily Repeat
Type: toxicity, organism-based, Sprague-Dawley
Design: regimen Daily Repeat, gender Male, age 6-8 weeks
Details: in vivo, po, route oral GAVAGE, vehicle .5 % CMC; for ALANINE AMINOTRANSFERASE / ALBUMIN / ALKALINE PHOSPHATASE / ASPARTATE AMINOTRANSFERASE / BLOOD UREA NITROGEN / CHLORIDE / CHOLESTEROL / CREATINE PHOSPHOKINASE / CREATININE / GLUCOSE / LACTATE DEHYDROGENASE / LIPASE / PHOSPHORUS / POTASSIUM / SODIUM / TOTAL BILIRUBIN / TOTAL PROTEIN / URIC ACID: tissue Plasma
[1] = 0.0007 mg/kg, 2184 h, tissue Blood, dose level Low, time 91 day
[2] = 0.0007 mg/kg, 2184 h, dose level Low, time 91 day
[3] = 0.0007 mg/kg, […], tissue Blood, dose level Low, time 28 day
[4] = 0.0007 mg/kg, […], dose level Low, time 28 day
[5] = 0.001 mg/kg, 72 h, tissue Blood, dose level M1, time 3 day
[6] = 0.001 mg/kg, 72 h, dose level M1, time 3 day
[7] = 0.001 mg/kg, 120 h, tissue Blood, dose level M1, time 5 day
[8] = 0.001 mg/kg, 120 h, dose level M1, time 5 day
[9] = 0.02 mg/kg, 72 h, tissue Blood, dose level High, time 3 day
[10] = 0.02 mg/kg, 72 h, dose level High, time 3 day
[11] = 0.02 mg/kg, 120 h, tissue Blood, dose level High, time 5 day
[12] = 0.02 mg/kg, 120 h, dose level High, time 5 day

Clc1cc2c(cc1Cl)Oc1cc(Cl)c(Cl)cc1O2 [2,3,7,8-TETRACHLORODIBENZO-P-DIOXIN]
EOSINOPHIL [1]: 1.12% | ERYTHROCYTE COUNT [1]: 9.38 x10E6/uL | HEMATOCRIT [1]: 50.34% | HEMOGLOBIN [1]: 16.79 G/DL | LEUKOCYTE COUNT [1]: 13.03 x10E3/uL | LYMPHOCYTE [1]: 77.67% | MEAN CORPUSCULAR HEMOGLOBIN [1]: 17.96 pg | MEAN CORPUSCULAR HEMOGLOBIN CONCENTRATION [1]: 33.34 G/DL | MEAN CORPUSCULAR VOLUME [1]: 53.81 fL | MONOCYTE [1]: 2.14% | NEUTROPHIL [1]: 16.55% | PLATELET COUNT [1]: 1320.7 x10E3/uL | ALANINE AMINOTRANSFERASE [2]: 26.9 u/L | ALBUMIN [2]: 3.75 G/DL | ALKALINE PHOSPHATASE [2]: 85.3 u/L | ASPARTATE AMINOTRANSFERASE [2]: 64.6 u/L | BLOOD UREA NITROGEN [2]: 14.9 mg/dL | CHLORIDE [2]: 103.1 MEQ/L | CHOLESTEROL [2]: 55.9 mg/dL | CREATINE PHOSPHOKINASE [2]: 76.1 u/L | CREATININE [2]: 0.51 mg/dL | GLUCOSE [2]: 150.6 mg/dL | LACTATE DEHYDROGENASE [2]: 36.1 u/L | LIPASE [2]: 15.1 u/L | PHOSPHORUS [2]: 7.88 mg/dL | POTASSIUM [2]: 6.11 MEQ/L | SODIUM [2]: 151 MEQ/L | TOTAL BILIRUBIN [2]: 0.2 mg/dL | TOTAL PROTEIN [2]: 7.13 G/DL | URIC ACID [2]: 0.79 mg/dL | ABSOLUTE BASOPHIL [3]: 72 cells/µL | ABSOLUTE EOSINOPHIL [3]: 54 cells/µL | ABSOLUTE LYMPHOCYTE [3]: 9720 cells/µL | ABSOLUTE MONOCYTE [3]: 220 cells/µL | ABSOLUTE SEGMENTED NEUTROPHIL [3]: 1340 cells/µL | BASOPHIL [3]: 0.62% | EOSINOPHIL [3]: 0.5% | ERYTHROCYTE COUNT [3]: 8.2 x10E6/uL | HEMATOCRIT [3]: 46.2% | HEMOGLOBIN [3]: 15.3 G/DL | LEUKOCYTE COUNT [3]: 11.47 x10E3/uL | LYMPHOCYTE [3]: 84.6% | MEAN CORPUSCULAR HEMOGLOBIN [3]: 18.64 pg | MEAN CORPUSCULAR HEMOGLOBIN CONCENTRATION [3]: 33.1 G/DL | MEAN CORPUSCULAR VOLUME [3]: 56.34 fL | MONOCYTE [3]: 1.94% | NEUTROPHIL [3]: 11.78% | PLATELET COUNT [3]: 1311.4 x10E3/uL | ALANINE AMINOTRANSFERASE [4]: 24.8 u/L | ALBUMIN [4]: 3.58 G/DL | ALKALINE PHOSPHATASE [4]: 148 u/L | ASPARTATE AMINOTRANSFERASE [4]: 65.4 u/L | BLOOD UREA NITROGEN [4]: 10.6 mg/dL | CHLORIDE [4]: 104 MEQ/L | CHOLESTEROL [4]: 54.8 mg/dL | CREATINE PHOSPHOKINASE [4]: 83.2 u/L | CREATININE [4]: 0.44 mg/dL | GLUCOSE [4]: 147.6 mg/dL | LACTATE DEHYDROGENASE [4]: 39.8 u/L | LIPASE [4]: 39.2 u/L | PHOSPHORUS [4]: 9.54 mg/dL | POTASSIUM [4]: 5.96 MEQ/L | SODIUM [4]: 151.6 MEQ/L | TOTAL BILIRUBIN [4]: 0.2 mg/dL | TOTAL PROTEIN [4]: 6.34 G/DL | URIC ACID [4]: 0.22 mg/dL | BASOPHIL [5]: 0.47% | EOSINOPHIL [5]: 0.5% | ERYTHROCYTE COUNT [5]: 7.09 x10E6/uL | HEMATOCRIT [5]: 44.53% | HEMOGLOBIN [5]: 14.13 G/DL | LEUKOCYTE COUNT [5]: 11.43 x10E3/uL | LYMPHOCYTE [5]: 82.93% | MEAN CORPUSCULAR HEMOGLOBIN [5]: 20 pg | MEAN CORPUSCULAR HEMOGLOBIN CONCENTRATION [5]: 31.8 G/DL | MEAN CORPUSCULAR VOLUME [5]: 62.87 fL | MONOCYTE [5]: 2.37% | NEUTROPHIL [5]: 12.8% | PLATELET COUNT [5]: 1540.67 x10E3/uL | ALANINE AMINOTRANSFERASE [6]: 38.33 u/L | ALBUMIN [6]: 3.6 G/DL | ALKALINE PHOSPHATASE [6]: 343.33 u/L | ASPARTATE AMINOTRANSFERASE [6]: 60 u/L | BLOOD UREA NITROGEN [6]: 12 mg/dL | CHLORIDE [6]: 103 MEQ/L | CHOLESTEROL [6]: 88.33 mg/dL | CREATINE PHOSPHOKINASE [6]: 181.33 u/L | CREATININE [6]: 0.4 mg/dL | GLUCOSE [6]: 183.67 mg/dL | PHOSPHORUS [6]: 13.1 mg/dL | POTASSIUM [6]: 6.53 MEQ/L | SODIUM [6]: 148.33 MEQ/L | TOTAL BILIRUBIN [6]: 0.33 mg/dL | TOTAL PROTEIN [6]: 5.93 G/DL | BASOPHIL [7]: 0.47% | EOSINOPHIL [7]: 0.23% | ERYTHROCYTE COUNT [7]: 7.01 x10E6/uL | HEMATOCRIT [7]: 45.3% | HEMOGLOBIN [7]: 14.33 G/DL | LEUKOCYTE COUNT [7]: 13.09 x10E3/uL | LYMPHOCYTE [7]: 85.1% | MEAN CORPUSCULAR HEMOGLOBIN [7]: 20.47 pg | MEAN CORPUSCULAR HEMOGLOBIN CONCENTRATION [7]: 31.6 G/DL | MEAN CORPUSCULAR VOLUME [7]: 64.6 fL | MONOCYTE [7]: 2.03% | NEUTROPHIL [7]: 11.33% | PLATELET COUNT [7]: 977.33 x10E3/uL | ALANINE AMINOTRANSFERASE [8]: 39.33 u/L | ALBUMIN [8]: 3.63 G/DL | ALKALINE PHOSPHATASE [8]: 300 u/L | ASPARTATE AMINOTRANSFERASE [8]: 62.33 u/L | BLOOD UREA NITROGEN [8]: 12.33 mg/dL | CHLORIDE [8]: 101.67 MEQ/L | CHOLESTEROL [8]: 84.33 mg/dL | CREATINE PHOSPHOKINASE [8]: 173.33 u/L | CREATININE [8]: 0.43 mg/dL | GLUCOSE [8]: 173.33 mg/dL | PHOSPHORUS [8]: 12.97 mg/dL | POTASSIUM [8]: 6.93 MEQ/L | SODIUM [8]: 149.33 MEQ/L | TOTAL BILIRUBIN [8]: 0.5 mg/dL | TOTAL PROTEIN [8]: 6.07 G/DL | BASOPHIL [9]: 0.37% | EOSINOPHIL [9]: 0.47% | ERYTHROCYTE COUNT [9]: 6.77 x10E6/uL | HEMATOCRIT [9]: 41.33% | HEMOGLOBIN [9]: 12.93 G/DL | LEUKOCYTE COUNT [9]: 11.64 x10E3/uL | LYMPHOCYTE [9]: 80.13% | MEAN CORPUSCULAR HEMOGLOBIN [9]: 19.13 pg | MEAN CORPUSCULAR HEMOGLOBIN CONCENTRATION [9]: 31.33 G/DL | MEAN CORPUSCULAR VOLUME [9]: 61.07 fL | MONOCYTE [9]: 2.43% | NEUTROPHIL [9]: 15.43% | PLATELET COUNT [9]: 1395 x10E3/uL | ALANINE AMINOTRANSFERASE [10]: 38.67 u/L | ALBUMIN [10]: 3.43 G/DL | ALKALINE PHOSPHATASE [10]: 312.67 u/L | ASPARTATE AMINOTRANSFERASE [10]: 58.67 u/L | BLOOD UREA NITROGEN [10]: 10.67 mg/dL | CHLORIDE [10]: 103.33 MEQ/L | CHOLESTEROL [10]: 75 mg/dL | CREATINE PHOSPHOKINASE [10]: 168.33 u/L | CREATININE [10]: 0.3 mg/dL | GLUCOSE [10]: 187.33 mg/dL | PHOSPHORUS [10]: 12.63 mg/dL | POTASSIUM [10]: 7.03 MEQ/L | SODIUM [10]: 147 MEQ/L | TOTAL BILIRUBIN [10]: 0.27 mg/dL | TOTAL PROTEIN [10]: 5.57 G/DL | BASOPHIL [11]: 0.5% | EOSINOPHIL [11]: 0.27% | ERYTHROCYTE COUNT [11]: 7.05 x10E6/uL | HEMATOCRIT [11]: 43.57% | HEMOGLOBIN [11]: 13.87 G/DL | LEUKOCYTE COUNT [11]: 16.09 x10E3/uL | LYMPHOCYTE [11]: 87.33% | MEAN CORPUSCULAR HEMOGLOBIN [11]: 19.67 pg | MEAN CORPUSCULAR HEMOGLOBIN CONCENTRATION [11]: 31.8 G/DL | MEAN CORPUSCULAR VOLUME [11]: 61.9 fL | MONOCYTE [11]: 1.77% | NEUTROPHIL [11]: 8.93% | PLATELET COUNT [11]: 1151.33 x10E3/uL | ALANINE AMINOTRANSFERASE [12]: 46 u/L | ALBUMIN [12]: 3.5 G/DL | ALKALINE PHOSPHATASE [12]: 413.67 u/L | ASPARTATE AMINOTRANSFERASE [12]: 68 u/L | BLOOD UREA NITROGEN [12]: 12 mg/dL | CHLORIDE [12]: 102.33 MEQ/L | CHOLESTEROL [12]: 85.67 mg/dL | CREATINE PHOSPHOKINASE [12]: 209.67 u/L | CREATININE [12]: 0.4 mg/dL | GLUCOSE [12]: 184.33 mg/dL | PHOSPHORUS [12]: 12.77 mg/dL | POTASSIUM [12]: 6.53 MEQ/L | SODIUM [12]: 148.67 MEQ/L | TOTAL BILIRUBIN [12]: 0.4 mg/dL | TOTAL PROTEIN [12]: 5.8 G/DL
